Measurements: patent US7902384B2, “Estrogenic-active compounds and application thereof” (National Taiwan University, priority 2008, dated 2011)
“And” between values parts separate entries of the source, which are not always exact repeats. Equal entries are not always repeated.

Columns and labels:
GAL4-hERα [1] = biological target: T1, GAL4-hERα (Homo sapiens, UniProt P03372); experiment: Estrogenic activity assay with co-addition of 1 nM 17β-estradiol (antagonism or synergistic agonism), GAL4-hERα reporter in CHO-k1 cells; settings: co-added with 1 nM 17β-estradiol, vs single addition of estrogen, p<0.05
T1 sequence (P03372 311-547 limits assumed): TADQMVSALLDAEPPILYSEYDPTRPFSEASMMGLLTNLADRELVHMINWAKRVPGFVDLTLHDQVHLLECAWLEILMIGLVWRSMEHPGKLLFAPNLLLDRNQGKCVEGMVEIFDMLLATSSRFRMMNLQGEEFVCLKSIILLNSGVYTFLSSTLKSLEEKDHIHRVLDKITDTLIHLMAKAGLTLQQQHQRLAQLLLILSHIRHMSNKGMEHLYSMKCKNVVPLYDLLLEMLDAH
Description: (§2) Plasmid pBKCMV containing GAL4hERα (or ERβ) ligand binding domain (LBD) chimeric receptors and plasmid containing (UAS)4-alkaline phosphatase (ALP) reporter gene were co-transfected into Chinese hamster cells (CHO-k1). Compounds with estrogenic activity would interact with estrogen-specific ER to induce the binding of GAL4 and upstream activation sequence (UAS) specifically to initiate the expression of ALP gene. Therefore, the ALP activity can be used to determine whether the samples to be assayed have the estrogenic activity.
(§3) Cells in high confluence were plated onto 96-well culture plate the day before transfection. The plate was then washed to remove the serum during the day of transfection, followed by addition of two plasmid DNA, GAL4-hERα and (UAS)4-ALP in the ratio of 5:1, or GAL4-hERβ and (UAS)4-ALP in the ratio of 4:1, together with Lipofectamine™ 2000 transfection agent and culture medium to form DNA-liposome complex for 5 h.
(§4) The sample to be assayed was added into the medium of transfected cells and cultivated for 2 days.

GAL4-hERβ [2] = biological target: T2, GAL4-hERβ (Homo sapiens, UniProt Q92731); experiment: Estrogenic activity assay with co-addition of 1 nM 17β-estradiol (antagonism or synergistic agonism), GAL4-hERβ reporter in CHO-k1 cells; settings: co-added with 1 nM 17β-estradiol, vs single addition of estrogen, p<0.05
Description: as §2, §3, §4

GAL4-hERβ [3] = biological target: T2, GAL4-hERβ; experiment: Estrogenic activity assay: GAL4-hERβ LBD / (UAS)4-ALP reporter in transfected CHO-k1 cells, single addition of sample; type: cell-based; design: expressed in transfected cells; host or cells: CHO-k1 (Chinese hamster cells); settings: for EC50: read-out: EC50 for ERβ (converted); for ERβ versus ERα selectivity of activation: comparison of ERα and ERβ reporter activation
Description: (§1) First, a method for assessing the estrogenic activity in the field samples was established. This method comprises: preparing a cell line transfected with plasmids which can screen estrogenic activity substances. […] The reporter gene in the plasmid was expressed when the sample to be assayed contains estrogenic activity. Among them, the samples to be assayed in the examples of the invention include Loliolide, (4S,6S)-4-Hydroxy-6-nonadecyl-tetrahydro-pyran-2-one, (4R,6S)-4-Hydroxy-6-nonadecyl-tetrahydro-pyran-2-one. […] The details of establishing the assessing method are described as follows: […]

GAL4-hERα [4] = biological target: T1, GAL4-hERα; experiment: Estrogenic activity assay: GAL4-hERα LBD / (UAS)4-ALP reporter in transfected CHO-k1 cells, single addition of sample; type: cell-based; design: expressed in transfected cells; host or cells: CHO-k1 (Chinese hamster cells); settings: for EC50: read-out: EC50 for ERα (converted)
Description: as §1

[5] = ALP reporter, CHO-k1, single addition

T2 sequence (Q92731 264-498 limits assumed): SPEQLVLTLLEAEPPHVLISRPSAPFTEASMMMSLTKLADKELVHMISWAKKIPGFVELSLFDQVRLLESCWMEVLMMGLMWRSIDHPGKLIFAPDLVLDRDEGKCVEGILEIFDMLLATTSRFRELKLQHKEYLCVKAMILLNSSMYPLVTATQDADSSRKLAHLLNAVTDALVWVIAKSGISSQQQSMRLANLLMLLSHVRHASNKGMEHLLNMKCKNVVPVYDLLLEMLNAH

Row | Structure (SMILES) | concentration at which activation of ERα due to estrogen was significantly decreased (GAL4-hERα [1]) | concentration at which activation of ERβ due to estrogen was significantly decreased (GAL4-hERβ [2]) | concentration at which maximal activation of ERβ activity was achieved (GAL4-hERβ [3]; [5]) | EC50 (GAL4-hERβ [3]; [5]) | ERβ versus ERα selectivity of activation (GAL4-hERβ [3]) | concentration at which maximal activation of ERα activity was achieved (GAL4-hERα [4]) | EC50 (GAL4-hERα [4]) | concentration at which maximal activation of the estrogenic activity was achieved (ERβ) (GAL4-hERβ [3]; [5]) | concentration at which maximal activation of the estrogenic activity was achieved (ERα) (GAL4-hERα [4])
1 | CCCCCCCCCCCCCCCCCCC[C@H]1C[C@@H](O)CC(=O)O1 [(4R,6S)-4-Hydroxy-6-nonadecyl-tetrahydro-pyran-2-one] | 2 µg/mL | 2 µg/mL | 10 µg/mL | 8.94 µM | better activation efficiency in ERβ | 20 µg/mL |  |  | 
2 | CCCCCCCCCCCCCCCCCCC[C@H]1C[C@H](O)CC(=O)O1 [(4S,6S)-4-Hydroxy-6-nonadecyl-tetrahydro-pyran-2-one] | 1 µg/mL | 2 µg/mL | 10 µg/mL | 4.68 µM | better activation efficiency in ERβ | 10 µg/mL | 16.2 µM |  | 
3 | CC1(C)C[C@H](O)C[C@@]2(C)OC(=O)C=C12 [Loliolide] | 10.1 µM | 204 µM | 20 µg/mL | 17.9 µM and 18 µM | better activation efficiency in ERβ | 20 µg/mL | 54.2 µM | 102.0 µM | 102.0 µM
